{"source": "patent US7851484B2", "about": "“Certain chemical entities, compositions, and methods” (Cytokinetics, Inc., priority 2007, dated 2010)"}
{"tested_on": "SKM MF", "assay": "SKM MF AC1.4: ATPase screen of skeletal sarcomeric proteins with PK/LDH coupled enzyme system", "assay_type": "biochemical", "design": "AC1.4 Median: unit not given here", "details": "not given", "protocol": "(§1) For example, test compounds can be assayed in a highly parallel fashion by using multiwell plates by placing the compounds either individually in wells or testing them in mixtures. Assay components including the target protein complex, coupling enzymes and substrates, and ATP can then be added to the wells and the absorbance or fluorescence of each well of the plate can be measured with a plate reader.\n(§2) In some embodiments, the method uses a 384 well plate format and a 25 μL reaction volume. A pyruvate kinase/lactate dehydrogenase coupled enzyme system (Huang T G and Hackney D D. (1994) J Biol Chem 269(23):16493-501) can be used to measure the rate of ATP hydrolysis in each well. As will be appreciated by those in the art, the assay components are added in buffers and reagents. The incubation periods can be optimized to give adequate detection signals over the background. The assay can be done in real time giving the kinetics of ATP hydrolysis which increases the signal to noise ratio of the assay.\n(§3) Just prior to screening, the actin, tropomyosin, and troponin complex are mixed together in the desired ratio (e.g., 7:1:1) to achieve maximal calcium regulation of the actin filament. The screen is conducted at a pCa=6.5. This calcium concentration is in the physiological range during muscle contraction.\n(§4) To measure the generation of ADP during the reaction, a pyruvate kinase/lactate dehydrogenase/NADH coupled enzyme system (PK/LDH) is added to the actin. The myosin is kept separately. The plates are read in real time so that kinetic curves are obtained. These compounds are in DMSO and were already spotted onto the bottoms of 384 well plates at 10 to 40 μg/ml final concentration.", "units": {"SKM MF AC1.4": "µM"}}
{"molecule": "CCC(CC)n1c(=O)[nH]c2ncccc21", "note": "[1-(pentan-3-yl)-1H-imidazo[4,5-b]pyridin-2(3H)-one]", "SKM MF AC1.4": 19.2}
{"tested_on": "SKM MF", "assay": "SKM MF AC1.4: ATPase screen of skeletal sarcomeric proteins with PK/LDH coupled enzyme system", "assay_type": "biochemical", "design": "AC1.4 Median: unit not given here", "details": "median", "protocol": "as §1, §2, §3, §4"}
{"molecule": "1-(ethylpropyl)-6-(1-methylvinyl)imidazo[4,5-b]pyridin-2-ol", "AC1.4 Median": 10.1217}
{"molecule": "1-(ethylpropyl)-6-(2-methylprop-1-enyl)imidazo[4,5-b]pyridin-2-ol", "AC1.4 Median": 35.3882}
{"molecule": "1-(ethylpropyl)-6-(3-thienyl)imidazo[4,5-b]pyridin-2-ol", "AC1.4 Median": 22.3369}
{"molecule": "1-(ethylpropyl)-6-ethynyl-2-hydroxyimidazo[4,5-b]pyridine-7-carbonitrile", "AC1.4 Median": 0.1028}
{"molecule": "1-(ethylpropyl)-6-ethynyl-7-methylimidazo[4,5-b]pyridin-2-ol", "AC1.4 Median": 2.0265}
{"molecule": "1-(ethylpropyl)-6-methoxyimidazo[4,5-b]pyridin-2-ol", "AC1.4 Median": 24.0256}
{"molecule": "1-(ethylpropyl)-6-prop-1-ynylimidazo[4,5-b]pyridin-2-ol", "AC1.4 Median": 27.8274}
{"molecule": "1-(ethylpropyl)imidazo[4,5-b]pyridine-2,6-diol", "AC1.4 Median": 7.8719}
{"molecule": "6-((1Z)prop-1-enyl)-1-(ethylpropyl)imidazo[4,5-b]pyridin-2-ol", "AC1.4 Median": 3.5145}
{"molecule": "6-bromo-1-(ethylpropyl)-7-methylimidazo[4,5-b]pyridin-2-ol", "AC1.4 Median": 2.2135}
{"molecule": "6-chloro-1-(ethylpropyl)-7-(hydroxyethyl)imidazo[4,5-b]pyridin-2-ol", "AC1.4 Median": 30.7467}
{"molecule": "6-chloro-1-(ethylpropyl)-7-(hydroxymethyl)imidazo[4,5-b]pyridin-2-ol", "AC1.4 Median": 42.6538}
{"molecule": "6-chloro-1-(methylethyl)imidazo[4,5-b]pyridin-2-ol", "AC1.4 Median": 25.8589}
{"molecule": "7-[(dimethylamino)methyl]-6-chloro-1-(ethylpropyl)benzimidazol-2-ol", "AC1.4 Median": 13.3270}
{"molecule": "CC(C)(Cc1ccccc1)n1c(O)nc2ncc(Cl)cc21", "note": "[1-(1,1-dimethyl-2-phenylethyl)-6-chloroimidazo[4,5-b]pyridin-2-ol]", "AC1.4 Median": 8.2080}
{"molecule": "CC(C)CC(C)n1c(O)nc2ncc(Cl)cc21", "note": "(stereo not drawn) [1-(1,3-dimethylbutyl)-6-chloroimidazo[4,5-b]pyridin-2-ol]", "AC1.4 Median": 5.7765}
{"molecule": "OC[C@@H](C1CCCCC1)n1c(O)nc2ncc(Cl)cc21", "note": "[1-((1R)-1-cyclohexyl-2-hydroxyethyl)-6-chloroimidazo[4,5-b]pyridin-2-ol]", "AC1.4 Median": 37.7104}
{"molecule": "CC[C@H](CCO)n1c(O)nc2ncc(Cl)cc21", "note": "[1-((1R)-1-ethyl-3-hydroxypropyl)-6-chloroimidazo[4,5-b]pyridin-2-ol]", "AC1.4 Median": 7.7806}
{"molecule": "CC[C@@H](C)n1c(O)nc2ncc(Cl)cc21", "note": "[1-((1R)-1-methylpropyl)-6-chloroimidazo[4,5-b]pyridin-2-ol]", "AC1.4 Median": 10.6839}
{"molecule": "C[C@H](c1ccccc1)n1c(O)nc2ncc(Cl)cc21", "note": "[1-((1R)-1-phenylethyl)-6-chloroimidazo[4,5-b]pyridin-2-ol]", "AC1.4 Median": 35.2255}
{"molecule": "CC[C@H](CN=[N+]=[N-])n1c(O)nc2ncc(Cl)cc21", "note": "[1-((1R)-3-diazo-1-ethyl-3-azaprop-3-enyl)-6-chloroimidazo[4,5-b]pyridin-2-ol]", "AC1.4 Median": 11.2261}
{"molecule": "CC[C@@H](CCO)n1c(O)nc2ncc(Cl)c(I)c21", "note": "[1-((1S)-1-ethyl-3-hydroxypropyl)-6-chloro-7-iodoimidazo[4,5-b]pyridin-2-ol]", "AC1.4 Median": 37.2312}
{"molecule": "C[C@@H](c1ccccc1)n1c(O)nc2ncc(Cl)cc21", "note": "[1-((1S)-1-phenylethyl)-6-chloroimidazo[4,5-b]pyridin-2-ol]", "AC1.4 Median": 31.7670}
{"molecule": "CC[C@@H](c1ccccc1)n1c(O)nc2ncc(Cl)cc21", "note": "[1-((1S)-1-phenylpropyl)-6-chloroimidazo[4,5-b]pyridin-2-ol]", "AC1.4 Median": 6.3763}
{"molecule": "CCC(CC)n1c(O)nc2ncc(C(F)(F)F)cc21", "note": "[1-(ethylpropyl)-6-(trifluoromethyl)imidazo[4,5-b]pyridin-2-ol]", "AC1.4 Median": 47.6668}
{"molecule": "CCC(CC)n1c(=O)[nH]c2ncccc21", "note": "[1-(pentan-3-yl)-1H-imidazo[4,5-b]pyridin-2(3H)-one]", "AC1.4 Median": 19.1998}
